Measurements as given in ChEMBL document CHEMBL1201862, “PubChem BioAssay data set” (2004).
Calls of active or inactive are those of the source.

Legend:
[1] = biological target: T1, Heat shock factor protein 1 (Mus musculus, UniProt P38532); experiment: inhibition of MG132-induced HSE-luciferase signal, confirmation, cell-based, NIH3T3, luminescence, dose retest (AID 2382); format: functional;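 further: NIH3T3 fibroblasts with HSF1-driven luciferase reporter stressed by proteasome inhibitor MG132; luminescence from HSF1-driven luciferase expression after 8 hours of MG132 stress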
T1 sequence (P38532 whole entry): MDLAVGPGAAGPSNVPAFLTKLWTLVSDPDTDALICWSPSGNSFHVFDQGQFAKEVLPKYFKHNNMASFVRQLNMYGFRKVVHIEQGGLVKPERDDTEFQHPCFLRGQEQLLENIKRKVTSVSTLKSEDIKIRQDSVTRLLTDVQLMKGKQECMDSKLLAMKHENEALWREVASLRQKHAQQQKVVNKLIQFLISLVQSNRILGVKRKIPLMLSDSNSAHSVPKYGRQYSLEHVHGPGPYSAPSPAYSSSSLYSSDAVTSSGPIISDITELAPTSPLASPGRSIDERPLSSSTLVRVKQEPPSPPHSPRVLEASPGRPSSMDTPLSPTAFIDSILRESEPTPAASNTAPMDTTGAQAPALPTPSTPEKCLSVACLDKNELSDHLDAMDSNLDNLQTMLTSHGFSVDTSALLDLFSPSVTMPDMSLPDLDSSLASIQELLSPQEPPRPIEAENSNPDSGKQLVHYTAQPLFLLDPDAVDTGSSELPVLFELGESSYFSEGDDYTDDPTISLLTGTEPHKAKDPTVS

[2] = growth suppression of PTEN-null colon cells, dose response, cell-based, HCT116 PTEN knockout (AID 1047); format: functional;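 further: HCT116 colon tumor cells with PTEN knocked out; cells exposed to compound for 60 hours before readout; potency for loss of cell viability measured by luminescence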
[3] = growth suppression of beta-catenin-knockout colon cells, dose response, cell-based, HCT116, human colon tumor (AID 1045); format: functional;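 further: HCT116 colon tumor cells with beta catenin knocked out; cells exposed to compound for 60 hours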
[4] = THP-1 cell cytotoxicity, dose response, cytotoxicity control for non-replicating M. tuberculosis project (AID 489025); format: functional
[5] = Vero E6 cell cytotoxicity, dose response, cytotoxicity control for non-replicating M. tuberculosis project, secondary assay (AID 492998); format: functional, VeroE6; conditions: Vero C1008
[6] = cells; format: functional
[7] = biological target: T2, Replicative DNA helicase DnaB (Mycobacterium tuberculosis, UniProt P9WMR3); experiment: DnaB intein splicing inhibitors, dose response, biochemical, cell-free fluorescence (AID 449749); format: functional
T2 sequence (P9WMR3 whole entry): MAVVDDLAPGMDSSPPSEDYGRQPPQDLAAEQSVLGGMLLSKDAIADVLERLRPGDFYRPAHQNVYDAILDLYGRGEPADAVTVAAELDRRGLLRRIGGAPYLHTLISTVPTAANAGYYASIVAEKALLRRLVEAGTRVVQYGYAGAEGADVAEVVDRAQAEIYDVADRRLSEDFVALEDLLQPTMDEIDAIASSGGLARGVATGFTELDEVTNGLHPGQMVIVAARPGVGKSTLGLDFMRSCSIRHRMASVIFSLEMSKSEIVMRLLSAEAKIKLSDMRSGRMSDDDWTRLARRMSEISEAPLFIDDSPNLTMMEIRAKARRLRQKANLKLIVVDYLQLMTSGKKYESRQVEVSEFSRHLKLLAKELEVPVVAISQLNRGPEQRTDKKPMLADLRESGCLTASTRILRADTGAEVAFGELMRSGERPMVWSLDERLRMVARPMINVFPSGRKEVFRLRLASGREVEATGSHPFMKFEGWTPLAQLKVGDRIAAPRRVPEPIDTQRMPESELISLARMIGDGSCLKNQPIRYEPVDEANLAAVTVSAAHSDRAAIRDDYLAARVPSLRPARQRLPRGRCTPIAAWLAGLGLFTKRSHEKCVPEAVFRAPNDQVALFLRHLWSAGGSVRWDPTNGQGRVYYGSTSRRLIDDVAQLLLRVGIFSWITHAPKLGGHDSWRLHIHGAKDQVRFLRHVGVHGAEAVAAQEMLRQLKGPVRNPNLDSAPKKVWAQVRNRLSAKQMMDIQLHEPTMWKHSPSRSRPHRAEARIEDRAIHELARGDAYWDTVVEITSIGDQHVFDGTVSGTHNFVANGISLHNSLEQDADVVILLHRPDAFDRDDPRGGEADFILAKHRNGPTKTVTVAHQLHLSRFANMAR

O=C1C(Nc2ccccc2)=C/C(=N/S(=O)(=O)c2cccs2)c2ccccc21
active: EC50 [1] 1.09 µM | EC50 [2] 4.13 µM | EC50 [3] 4.63 µM | CC50 [4] 1.8 µM | CC50 [5] 7.43 µM | IC50 [6] 14.2 µM | AC50 [7] 0.187 µM
